{"source": "paper PMC3403540", "about": "“Active Hydrophilic Components of the Medicinal Herb Salvia miltiorrhiza (Danshen) Potently Inhibit Organic Anion Transporters 1 (Slc22a6) and 3 (Slc22a8)” (Evidence-based Complementary and Alternative Medicine : eCAM, 2012)", "key": {"mOat3 [1]": {"molecular_target": "T1, mOat3 (Mus musculus, UniProt O88909)", "T1 construct": "expressed in transfected cells; host or cells: CHO (Chinese hamster ovary), stably transfected (CHO-mOat3)", "T1 sequence (O88909 1-537)": "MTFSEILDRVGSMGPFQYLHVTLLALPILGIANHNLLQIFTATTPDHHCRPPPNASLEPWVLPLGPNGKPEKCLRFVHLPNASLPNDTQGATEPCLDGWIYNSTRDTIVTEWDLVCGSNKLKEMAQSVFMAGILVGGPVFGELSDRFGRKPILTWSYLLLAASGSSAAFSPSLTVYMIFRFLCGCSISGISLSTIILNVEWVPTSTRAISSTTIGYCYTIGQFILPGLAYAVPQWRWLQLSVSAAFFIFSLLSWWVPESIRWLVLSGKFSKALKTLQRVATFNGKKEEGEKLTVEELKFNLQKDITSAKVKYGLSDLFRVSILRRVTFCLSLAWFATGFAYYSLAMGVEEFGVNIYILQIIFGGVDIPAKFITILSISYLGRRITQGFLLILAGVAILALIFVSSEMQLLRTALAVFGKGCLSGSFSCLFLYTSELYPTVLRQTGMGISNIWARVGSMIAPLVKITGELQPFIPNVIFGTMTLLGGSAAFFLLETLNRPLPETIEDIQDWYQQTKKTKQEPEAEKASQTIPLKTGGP", "parameters": "method as in PMID 18381565", "settings": "CHO-mOat3 cells, determined previously; cited from earlier work"}, "mOat1 [2]": {"molecular_target": "T2, mOat1 (Mus musculus, UniProt Q8VC69)", "T2 construct": "expressed in transfected cells; host or cells: CHO (Chinese hamster ovary), stably transfected (CHO-mOat1)", "T2 sequence (Q8VC69 1-545)": "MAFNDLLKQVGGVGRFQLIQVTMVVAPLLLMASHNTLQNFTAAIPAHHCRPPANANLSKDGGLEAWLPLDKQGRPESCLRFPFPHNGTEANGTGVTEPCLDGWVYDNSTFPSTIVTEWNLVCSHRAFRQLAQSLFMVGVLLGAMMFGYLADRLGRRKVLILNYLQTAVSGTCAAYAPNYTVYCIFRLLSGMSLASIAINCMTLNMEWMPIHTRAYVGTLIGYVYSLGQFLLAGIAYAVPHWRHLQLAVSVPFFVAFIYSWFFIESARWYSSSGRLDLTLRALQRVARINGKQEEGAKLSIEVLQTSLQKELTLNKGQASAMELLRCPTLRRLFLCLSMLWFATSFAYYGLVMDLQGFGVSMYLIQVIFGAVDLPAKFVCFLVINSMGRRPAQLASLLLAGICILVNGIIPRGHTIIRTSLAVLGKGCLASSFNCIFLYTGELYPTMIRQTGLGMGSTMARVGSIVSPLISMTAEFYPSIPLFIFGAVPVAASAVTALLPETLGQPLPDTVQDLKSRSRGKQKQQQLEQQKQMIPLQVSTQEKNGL", "assay": "Inhibition of mOat1-mediated [3H]PAH uptake in CHO-mOat1 cells (cell accumulation assay)", "format": "cell-based, murine", "settings": "read-out: inhibition of mOat1-mediated PAH uptake", "protocol": "(§1) Derivation of the stably transfected Chinese hamster ovary (CHO) cell lines expressing mOat1 (CHO-mOat1), mOat3 (CHO-mOat3), and the empty vector (FRT) transfected control cell line (CHO-FRT) was described previously.\nCell transport assay procedures were adapted from those previously published. In brief, 2 × 10^5 cells/well were seeded in 24-well tissue culture plates and grown in the absence of antibiotics for 48 hr. On the day of the experiment, cells were equilibrated with transport buffer for 10 min (500 μL of Hanks' balanced salt solution containing 10 mM HEPES, pH 7.4). […] After incubation, cells were immediately rinsed three times with ice-cold transport buffer, lysed, and analyzed via liquid scintillation counting. Uptake values were normalized to corresponding total protein content in cell lysates as determined by the Bradford method. Substrate accumulation is reported as picomoles of substrate per milligram protein. […] Kinetic calculations were performed using GraphPad Prism Software version 5.0 (GraphPad Software Inc., San Diego, CA, USA). Michaelis constant (K m) values were calculated by nonlinear regression using the Michaelis-Menten model. […] In this study, three curves were constructed (no inhibitor, plus two selected inhibitor concentrations) with uptake of substrate plotted as a function of its concentration for each condition. […] The parameter, α, can then be used to determine the mode of inhibition. When α is very large (α > 1), it indicates competitive inhibition. […] Results were confirmed by repeating all experiments at least three times with triplicate wells for each data point in every experiment.\nFigure 3 Michaelis-Menten kinetics of PAH transport in CHO-mOat1 cells. In order to calculate K i values for mOat1, the K m value for PAH needed to be determined in the CHO-mOat1 cell system. […] The corrected curve (closed circles) was obtained by subtracting the nonspecific background uptake as measured in the CHO-FRT cells from CHO-mOat1 accumulation to allow analysis of mOat1-mediated activity. Experiments were repeated three times in triplicate, and Michaelis constant (K m) values were calculated by nonlinear regression using the Michaelis-Menten model. […] Graph shown is from a representative experiment with values plotted as mean ± S.D. (n = 3).\n(§2) Figure 2 Inhibition profile of mOat1 and mOat3. […] (b) Inhibition of mOat3-mediated uptake of [^3H]ES (1 μM) by LSA, PCA, RMA, SAA, SAB, TSL, and probenecid (1000 μM) was measured in the CHO-mOat3 cells (10 min). […] Values are mean ± S.D. of triplicate values. ***denotes P < 0.001 as determined by one-way ANOVA followed by Dunnett's t-test.\nFigure 4 K i determination for LSA, RMA, and SAA in the CHO-mOat1 cell line. […] (5 μM) in CHO-mOat1 cells was measured in the presence of increasing concentrations (10^−7 to 5 × 10^−4 M) of LSA, RMA, and SAA. Data were corrected for nonspecific background measured in the CHO-FRT cells prior to kinetic analysis. K i values were determined with non-linear regression and the “one-site competition” model using GraphPad Prism software. Graphs shown are from representative experiments with values plotted as mean ± S.D. (n = 3)."}, "mOat3 [3]": {"molecular_target": "T1, mOat3", "assay": "Inhibition of mOat3-mediated [3H]ES uptake in CHO-mOat3 cells (cell accumulation assay)", "format": "cell-based, murine", "settings": "for inhibition at 1000 µM: read-out: inhibition of mOat3-mediated ES uptake", "protocol": "as §1\nCell transport assay procedures were adapted from those previously published. In brief, 2 × 10^5 cells/well were seeded in 24-well tissue culture plates and grown in the absence of antibiotics for 48 hr. On the day of the experiment, cells were equilibrated with transport buffer for 10 min (500 μL of Hanks' balanced salt solution containing 10 mM HEPES, pH 7.4). […] After incubation, cells were immediately rinsed three times with ice-cold transport buffer, lysed, and analyzed via liquid scintillation counting. Uptake values were normalized to corresponding total protein content in cell lysates as determined by the Bradford method. Substrate accumulation is reported as picomoles of substrate per milligram protein. […] Kinetic calculations were performed using GraphPad Prism Software version 5.0 (GraphPad Software Inc., San Diego, CA, USA). Michaelis constant (K m) values were calculated by nonlinear regression using the Michaelis-Menten model. Mode of inhibition was identified by using mixed model inhibition analysis as follows: (1) Vmax Apparent =Vmax/(1+[I]/(α×Ki)),Km Apparent=Km1+[I]/Ki/(1+[I]/(α×Ki)),Y=Vmax Apparent×x/Km Apparent+x, where V max, K i, and I represent the maximum transport velocity without inhibitor, the inhibition constant generated from the data set under analysis, and the concentration of inhibitor, respectively. In this study, three curves were constructed (no inhibitor, plus two selected inhibitor concentrations) with uptake of substrate plotted as a function of its concentration for each condition. […] The parameter, α, can then be used to determine the mode of inhibition. When α is very large (α > 1), it indicates competitive inhibition. Otherwise, it indicates noncompetitive inhibition (α = 1) or uncompetitive inhibition (0 < α < 1). To estimate K i values, IC50 values were calculated using nonlinear regression and inserted into the Cheng-Prusoff equation: K i = IC50/(1 + [Substrate]/K m). Results were confirmed by repeating all experiments at least three times with triplicate wells for each data point in every experiment.\nas §2, with “mOat3. […] (5 μM) by LSA, PCA, RMA, SAA, SAB, TSL, and probenecid (1000 μM) was measured in the CHO-mOat1 cells (10 min).” for “mOat3.”\nFigure 5 K i determination for LSA, RMA, and SAA in the CHO-mOat3 cell line. One minute uptake of [^3H]ES (1 μM) in CHO-mOat3 cells was measured in the presence of increasing concentrations (10^−7 to 4 × 10^−4 M) of LSA, RMA, and SAA. Data were corrected for nonspecific background measured in the CHO-FRT cells prior to kinetic analysis. K i values were determined with non-linear regression and the “one-site competition” model using GraphPad Prism software. Graphs shown are from representative experiments with values plotted as mean ± S.D. (n = 3)."}, "[4]": {"settings": "rats; cited from earlier work"}, "mOat3 [5]": {"molecular_target": "T1, mOat3", "parameters": "method as in PMID 21546538", "settings": "cited from earlier work"}, "mOat1 [6]": {"molecular_target": "T2, mOat1", "parameters": "method as in PMID 21546538", "settings": "cited from earlier work"}, "hOAT1": {"tested_on": "hOAT1", "parameters": "method as in PMID 15870380", "settings": "cited from earlier work"}, "mOat3 [7]": {"molecular_target": "T1, mOat3", "parameters": "method as in PMID 19953504, PMID 17553798, PMID 18973812", "settings": "read-out: K i for mOat3; cited from earlier work"}, "[8]": {"settings": "1 mM (1000 μM) inhibitor, 1 μM [3H]ES, 10 min, CHO-mOat3 cells"}}, "note": "Where a name gives a salt, the structure may show the parent alone. Read-outs that look alike come from different tables or passages of the source.", "data": [{"compound": "C[C@]12CC[C@@H]3c4ccc(OS(=O)(=O)O)cc4CC[C@H]3[C@@H]1CCC2=O", "note": "[ES, estrone sulfate]", "values": [{"measurement": "K m of ES on mOat3", "setting": "mOat3 [1]", "value": "12.2 ± 4.8", "unit": "µM"}]}, {"compound": "O=C(O)c1ccc(O)c(O)c1", "note": "[PCA, protocatechuic acid]", "values": [{"measurement": "inhibition at 1000 µM", "setting": "mOat1 [2]", "value": "> 95", "unit": "%"}, {"measurement": "inhibition at 1000 µM", "setting": "mOat3 [3]", "value": "> 91", "unit": "%"}]}, {"compound": "salvianolic acid B [SAB]", "values": [{"measurement": "increase of AUC on spiking additional SAA into Danshen preparations", "setting": "[4]", "value": 82.4, "unit": "%"}, {"measurement": "reduction of clearance on spiking additional SAA into Danshen preparations", "setting": "[4]", "value": 46.8, "unit": "%"}, {"measurement": "inhibition of mOat3-mediated ES uptake", "setting": "mOat3 [3]; [8]", "value": "approximately 53%"}]}, {"compound": "COc1cccc2c1cc([N+](=O)[O-])c1c(C(=O)O)cc3c(c12)OCO3", "note": "[aristolochic acid]", "values": [{"measurement": "K m as substrate for mOat3", "setting": "mOat3 [5]", "value": 0.514, "unit": "µM"}, {"measurement": "K m as substrate for mOat1", "setting": "mOat1 [6]", "value": 0.79, "unit": "µM"}]}, {"compound": "O=c1oc2c(O)c(O)cc3c(=O)oc4c(O)c(O)cc1c4c23", "note": "[ellagic acid]", "values": [{"measurement": "IC50", "setting": "hOAT1", "value": 207, "unit": "nM"}]}, {"compound": "CCCN(CCC)S(=O)(=O)c1ccc(C(=O)O)cc1", "note": "[probenecid, reference compound]", "values": [{"measurement": "Ki", "setting": "mOat3 [7]", "value": 4600, "unit": "nM"}, {"measurement": "inhibition at 1000 µM", "setting": "mOat3 [3]; [8]", "value": "> 91", "unit": "%"}]}]}
